Measurements: PMC8286840, “Identifying SARS-CoV-2 antiviral compounds by screening for small molecule inhibitors of Nsp3 papain-like protease” (Biochemical Journal, 2021)
Where a name gives a salt, the structure may show the parent alone. Read-outs that look alike come from different tables or passages of the source.

What was measured:
[1] = target: T1, SARS-CoV-2 PLpro (nsp3 1564–1878) (Severe acute respiratory syndrome coronavirus 2, UniProt P0DTD1); experiment: biochemical; set-up: FRET-quenched peptide (Pro3) cleavage by PLpro, 10 min pre-incubation, slope over 20 min, normalised to no-compound control; conditions: low concentration screen, read-out: % of control remaining
[2] = target: T1, SARS-CoV-2 PLpro (nsp3 1564–1878); experiment: biochemical; set-up: FRET-quenched peptide (Pro3) cleavage by PLpro, 10 min pre-incubation, slope over 20 min, normalised to no-compound control; conditions: high concentration screen, read-out: % of control remaining

## CC(C)N(CCC(=O)c1ccc2ccccc2c1)Cc1ccccc1 [ZM 39923 hydrochloride - 3-Benzylisopropylamino-1-naphthalen-2-yl-propan-1-one hydrochloride]
[1]; Well no.=2390
  remaining activity at 1.25 µM: 96.3%
[2]; Well no.=2390
  remaining activity at 3.75 µM: 98.1%

## COc1ccc(OC)c2c(=S)c3ccccc3[nH]c12 [Cdk4 Inhibitor II, NSC 625987]
[1]; Well no.=2406
  remaining activity at 1.25 µM: 102%
[2]; Well no.=2406
  remaining activity at 3.75 µM: 108%

## CC[C@H](C)C[C@H](C)CCCCCCCCC(=O)N[C@H]1C[C@@H](O)[C@@H](NCCN)NC(=O)[C@@H]2[C@@H](O)CCN2C(=O)[C@H]([C@H](O)CCN)NC(=O)[C@H]([C@H](O)[C@@H](O)c2ccc(O)cc2)NC(=O)[C@@H]2C[C@@H](O)CN2C(=O)[C@H]([C@@H](C)O)NC1=O [Caspofungin Acetate]
[1]; Well no.=5317
  remaining activity at 1.25 µM: 99.9%
[2]; Well no.=5317
  remaining activity at 3.75 µM: 95.7%

## CC1(C)S[C@@H]2[C@H](NC(=O)[C@H](NC(=O)N3CCN(S(C)(=O)=O)C3=O)c3ccccc3)C(=O)N2[C@H]1C(=O)O [Mezlocillin (sodium)]
[1]; Well no.=7790
  remaining activity at 1.25 µM: 99.7%
[2]; Well no.=7790
  remaining activity at 3.75 µM: 102%

## Cc1cc(O)c2c(=O)c3c(O)cc(O)c4c5c(O)cc(O)c6c(=O)c7c(O)cc(C)c8c1c2c(c34)c(c78)c65 [Hypericin]
[1]; Well no.=520
  remaining activity at 1.25 µM: 109%
[1]; Well no.=3725
  remaining activity at 1.25 µM: 96.4%
[2]; Well no.=520
  remaining activity at 3.75 µM: 109%
[2]; Well no.=3725
  remaining activity at 3.75 µM: 97.9%

## CO[C@H]1C[C@@H]2CC[C@@H](C)[C@@](O)(O2)C(=O)C(=O)N2CCCC[C@H]2C(=O)O[C@H]([C@H](C)C[C@@H]2CC[C@@H](O)[C@H](OC)C2)CC(=O)[C@H](C)/C=C(\C)[C@@H](O)[C@@H](OC)C(=O)[C@H](C)C[C@H](C)/C=C/C=C/C=C/1C [Rapamycin]
[1]; Well no.=1557
  remaining activity at 1.25 µM: 99.1%
[1]; Well no.=2555
  remaining activity at 1.25 µM: 93.5%
[1]; Well no.=3126
  remaining activity at 1.25 µM: 102%
[2]; Well no.=1557
  remaining activity at 3.75 µM: 97.9%
[2]; Well no.=2555
  remaining activity at 3.75 µM: 91.9%
[2]; Well no.=3126
  remaining activity at 3.75 µM: 106%

## Cc1cc(SCc2sc(-c3ccc(C(F)(F)F)c(F)c3)nc2C)ccc1OCC(=O)O [GW0742]
[1]; Well no.=5214
  remaining activity at 1.25 µM: 100%
[2]; Well no.=5214
  remaining activity at 3.75 µM: 98.5%

## C[N+]1(C)[C@@H]2C[C@@H](OC(=O)C(O)(c3cccs3)c3cccs3)C[C@H]1[C@@H]1O[C@@H]12 [Tiotropium Bromide hydrate]
[1]; Well no.=4912
  remaining activity at 1.25 µM: 100%
[2]; Well no.=4912
  remaining activity at 3.75 µM: 95.8%

## CCCC/C=C/CCCCCCCCC(=O)O [10(E)-Pentadecenoic acid]
[1]; Well no.=4300
  remaining activity at 1.25 µM: 97.7%
[2]; Well no.=4300
  remaining activity at 3.75 µM: 89.6%

## Cc1cccc(NC(=O)Nc2ccc(-c3csc4ncnc(N)c34)cc2)c1 [GDP366]
[1]; Well no.=6976
  remaining activity at 1.25 µM: 101%
[2]; Well no.=6976
  remaining activity at 3.75 µM: 99.1%

## COc1ccc(-c2cc(=S)ss2)cc1 [Anethole trithione]
[1]; Well no.=4132
  remaining activity at 1.25 µM: 93.9%
[2]; Well no.=4132
  remaining activity at 3.75 µM: 96.6%

## CC1(COc2ccc(CC3SC(=O)NC3=O)cc2)CCCCC1 (stereo not shown) [Ciglitazone]
[1]; Well no.=4236
  remaining activity at 1.25 µM: 110%
[2]; Well no.=4236
  remaining activity at 3.75 µM: 107%

## C=CCNC1=C2C[C@@H](C)C[C@H](OC)[C@H](O)[C@@H](C)/C=C(\C)[C@H](OC(N)=O)[C@@H](OC)/C=C\C=C(/C)C(=O)NC(=CC1=O)C2=O [Tanespimycin (17-AAG)]
[1]; Well no.=8932
  remaining activity at 1.25 µM: 88%
[2]; Well no.=8932
  remaining activity at 3.75 µM: 84.1%

## Clc1ccc(Nc2nnc(Cc3ccncc3)c3ccccc23)cc1 [Vatalanib]
[1]; Well no.=1619
  remaining activity at 1.25 µM: 97%
[2]; Well no.=1619
  remaining activity at 3.75 µM: 95.2%

## O=C(O)c1ccccc1Nc1cccc(OCc2ccc3ccccc3n2)c1 [SR 2640]
[1]; Well no.=1316
  remaining activity at 1.25 µM: 101%
[2]; Well no.=1316
  remaining activity at 3.75 µM: 101%

## O=C(Nc1c(Cl)cncc1Cl)c1ccc(OC(F)F)c(OCC2CC2)c1 [Roflumilast]
[1]; Well no.=5877
  remaining activity at 1.25 µM: 94.1%
[2]; Well no.=5877
  remaining activity at 3.75 µM: 94.8%

## CCNC(=O)N1CCN(CCCC(c2ccc(F)cc2)c2ccc(F)cc2)CC1 [Amperozide hydrochloride]
[1]; Well no.=165
  remaining activity at 1.25 µM: 92.6%
[2]; Well no.=165
  remaining activity at 3.75 µM: 96.4%

## C[C@H]1CNCCc2ccc(Cl)cc21 [Lorcaserin HCl]
[1]; Well no.=4742
  remaining activity at 1.25 µM: 102%
[2]; Well no.=4742
  remaining activity at 3.75 µM: 102%

## COc1ccc2cc1Oc1ccc(cc1)C[C@H]1c3c(cc4c(c3Oc3cc5c(cc3OC)CCN(C)[C@@H]5C2)OCO4)CCN1C [Cepharanthine]
[1]; Well no.=3555
  remaining activity at 1.25 µM: 102%
[2]; Well no.=3555
  remaining activity at 3.75 µM: 106%

## CCCN(CCC)[C@@H]1CCc2ccc(O)cc2C1 [R-(+)-7-Hydroxy-DPAT hydrobromide]
[1]; Well no.=428
  remaining activity at 1.25 µM: 97.2%
[2]; Well no.=428
  remaining activity at 3.75 µM: 96.9%

## CCn1c2ccccc2c2cc(Nc3ccnc(NCCCN4CCOCC4)n3)ccc21 [EHop-016]
[1]; Well no.=6234
  remaining activity at 1.25 µM: 98.3%
[2]; Well no.=6234
  remaining activity at 3.75 µM: 97.9%

## Nc1ccn(C[C@@H](CO)OCP(=O)(O)O)c(=O)n1 [Cidofovir (Vistide)]
[1]; Well no.=5251
  remaining activity at 1.25 µM: 98.3%
[2]; Well no.=5251
  remaining activity at 3.75 µM: 101%

## Cc1noc(-c2ccc(CSCCC(=O)O)cc2)c1NC(=O)OC(C)c1ccccc1Cl (stereo not shown) [Ki16425]
[1]; Well no.=7955
  remaining activity at 1.25 µM: 95.2%
[2]; Well no.=7955
  remaining activity at 3.75 µM: 96.5%

## CSCCNc1nonc1-c1noc(=O)n1-c1ccc(F)c(Br)c1 [IDO-IN-12]
[1]; Well no.=8177
  remaining activity at 1.25 µM: 105%
[2]; Well no.=8177
  remaining activity at 3.75 µM: 99.7%

## Cc1ccccc1C(=O)NCC(=O)O [2-(2-Methylbenzamido)acetic acid]
[1]; Well no.=6725
  remaining activity at 1.25 µM: 103%
[2]; Well no.=6725
  remaining activity at 3.75 µM: 104%

## CC(CN(C)C)CN1c2ccccc2CCc2ccccc21 (stereo not shown) [Trimipramine maleate]
[1]; Well no.=1333
  remaining activity at 1.25 µM: 104%
[2]; Well no.=1333
  remaining activity at 3.75 µM: 102%

## CCCC(=O)O[C@@H]1[C@@H](C)[C@@]2(O)[C@@H](C=C(CO)C[C@]3(O)C(=O)C(C)=C[C@@H]23)[C@@H]2C(C)(C)[C@]12OC(=O)CCC [Phorbol 12,13-dibutyrate]
[1]; Well no.=3487
  remaining activity at 1.25 µM: 97.7%
[2]; Well no.=3487
  remaining activity at 3.75 µM: 100%

## O=C(O)CCCCC(CCSCc1ccccc1)SCc1ccccc1 (stereo not shown) [CPI-613]
[1]; Well no.=5083
  remaining activity at 1.25 µM: 97.7%
[2]; Well no.=5083
  remaining activity at 3.75 µM: 88.8%

## O=C1c2ccccc2-n2c1nc1ccccc1c2=O [Tryptanthrin]
[1]; Well no.=3376
  remaining activity at 1.25 µM: 96.9%
[2]; Well no.=3376
  remaining activity at 3.75 µM: 100%

## CC1=C[C@]23C(=O)[C@@H](C=C(CO)[C@@H](O)[C@]2(O)[C@H]1O)[C@H]1[C@@H](C[C@H]3C)C1(C)C [Ingenol]
[1]; Well no.=3308
  remaining activity at 1.25 µM: 98.5%
[2]; Well no.=3308
  remaining activity at 3.75 µM: 99.1%

## Cc1cc(C)c2c(c1)[C@@H](N(Cc1cc(C(F)(F)F)cc(C(F)(F)F)c1)c1nnn(C)n1)CCCN2C[C@H]1CC[C@H](C(=O)O)CC1 [Evacetrapib (LY2484595)]
[1]; Well no.=5320
  remaining activity at 1.25 µM: 96.7%
[2]; Well no.=5320
  remaining activity at 3.75 µM: 100%

## C[C@H]1COc2c(N3CCN(C)CC3)c(F)cc3c(=O)c(C(=O)O)cn1c23 [Levofloxacin]
[1]; Well no.=2266
  remaining activity at 1.25 µM: 97.9%
[2]; Well no.=2266
  remaining activity at 3.75 µM: 98.5%
